Measured values taken from ChEMBL document CHEMBL1201862, “PubChem BioAssay data set” (2004).
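The compound was tested at five concentrations on cells cultured in 96-well plates, with a 48-hour exposure period. Here, GI50 denotes the concentration required for 50% inhibition of growth.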 Activity calls are given as the source filed them. No stated cut-off is given here; in the data, active = GI50 up to about 1.1 µM and inactive = higher.

Columns and labels:
Assay in all cases: NCI-60 cell line screen, 48 h
HCC 2998 = test system: HCC 2998
786-0 = test system: 786-0
ACHN = test system: ACHN
COLO 205 = test system: COLO 205
SK-MEL-5 = test system: SK-MEL-5
NCI-H226 = test system: NCI-H226
Malme-3M = test system: Malme-3M
NCI/ADR-RES = test system: NCI/ADR-RES
MOLT-4 = test system: MOLT-4
OVCAR-8 = test system: OVCAR-8
SF-539 = test system: SF-539
NCI-H23 = test system: NCI-H23
K562 = test system: K562
HCT-15 = test system: HCT-15
SK-MEL-28 = test system: SK-MEL-28
EKVX = test system: EKVX
RXF 393 = test system: RXF 393
SW-620 = test system: SW-620
MCF7 = test system: MCF7
OVCAR-5 = test system: OVCAR-5

Structure (SMILES)	GI50 (HCC 2998)	GI50 (786-0)	GI50 (ACHN)	GI50 (COLO 205)	GI50 (SK-MEL-5)	GI50 (NCI-H226)	GI50 (Malme-3M)	GI50 (NCI/ADR-RES)	GI50 (MOLT-4)	GI50 (OVCAR-8)	GI50 (SF-539)	GI50 (NCI-H23)	GI50 (K562)	GI50 (HCT-15)	GI50 (SK-MEL-28)	GI50 (EKVX)	GI50 (RXF 393)	GI50 (SW-620)	GI50 (MCF7)	GI50 (OVCAR-5)
N=C(N)NS(=O)(=O)c1ccc(NC(=O)c2cccc3c(NNc4ccc(C(=O)O)cc4)c4ccccc4nc23)cc1	52.2 µM (inactive)	> 100 µM (inactive)	> 100 µM (inactive)	65 µM (inactive)	99.1 µM (inactive)	64 µM (inactive)	93.1 µM (inactive)	> 100 µM (inactive)	44.9 µM (inactive)	> 100 µM (inactive)	71.3 µM (inactive)	> 100 µM (inactive)	50.1 µM (inactive)	> 100 µM	> 100 µM (inactive)	26.6 µM (inactive)	> 100 µM (inactive)	> 100 µM (inactive)	> 100 µM (inactive)	> 100 µM (inactive)
Cc1c2oc(=O)c(C#N)cc2c2ccccn12	> 100 µM (inactive)	> 100 µM (inactive)	> 100 µM (inactive)	> 100 µM (inactive)	> 100 µM (inactive)	> 100 µM (inactive)	97.3 µM (inactive)	> 100 µM (inactive)	> 100 µM (inactive)	> 100 µM (inactive)	81.7 µM (inactive)	7.64 µM (inactive)	> 100 µM (inactive)	89.9 µM	> 100 µM (inactive)	> 100 µM (inactive)	> 100 µM (inactive)	> 100 µM (inactive)	> 100 µM (inactive)	> 100 µM (inactive)
O=c1c2cc(I)ccc2nc(SCc2n[nH]c(=S)o2)n1Cc1ccccc1	18.8 µM (inactive)	16.7 µM (inactive)	15.3 µM (inactive)	10.6 µM (inactive)	13.2 µM (inactive)	11.1 µM (inactive)	17.9 µM (inactive)	19.1 µM (inactive)	20.7 µM (inactive)	19.1 µM (inactive)	16.1 µM (inactive)	16.3 µM (inactive)	14.4 µM (inactive)	17.3 µM	17.5 µM (inactive)	19.3 µM (inactive)	< 0.01 µM (active)	19.7 µM (inactive)	15.9 µM (inactive)	24.8 µM (inactive)
C=CCOC(=O)NC1C(OC(C)[C@@H](NC(=O)OCc2ccccc2)C(=O)OC(C)(C)C)OC(COC(C)=O)C(OC(C)=O)C1OC(C)=O (stereo not given in full)	> 100 µM (inactive)	> 100 µM (inactive)	> 100 µM (inactive)	> 100 µM (inactive)	> 100 µM (inactive)	> 100 µM (inactive)	> 100 µM (inactive)	50.6 µM (inactive)	25.8 µM (inactive)	65 µM (inactive)	> 100 µM (inactive)	> 100 µM (inactive)	72.9 µM (inactive)	> 100 µM	> 100 µM (inactive)	> 100 µM (inactive)	> 100 µM (inactive)	> 100 µM (inactive)	> 100 µM (inactive)	> 100 µM (inactive)
